The values that follow come from US20250129070A1, “BIFUNCTIONAL ANDROGEN RECEPTOR COMPOUNDS” (priority 2023, published 2025).

Molecules are shown by their SMILES. Bounds are passed on as bounds.

In one test the test system is VCaP cells. Briefly: VCaP growth inhibition assay. The conditions noted are these: 30 pM R1881, 9 days, CTG. It counts as cell-based. An outline of the steps: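 VCaP cells in phenol red-free DMEM/5% CSS, pre-incubated 72 h, then stimulated with R1881 (final 30 pM) and treated with 1:5 serial dilutions (final 100 nM to 10 fM) for 9 days at 37 °C. Viability by CellTiter-Glo luminescence; IC50 from 4-parameter logistic fit of RLU vs concentration.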

In another test the test system is AR / CBP ternary complex. Briefly: Ternary complex formation assay (sandwich ELISA, AR capture / CBP detection) in VCaP cell lysates. The test is classed as cell-based. The following applies: 1.5 hours treatment, sandwich ELISA (AR capture, CBP or p300 detection). An outline of the steps: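 VCaP cells (50K/well, 5% charcoal-stripped FBS, ≥3 days) treated with bifunctional compound for 1.5 h, then lysed 30 min at 4 °C. AR captured on anti-AR (AR 441) plates; bound CBP or p300 detected by rabbit mAb plus HRP secondary. QuantaRed chemifluorescence read at ex 570/em 585, immediately and at 5 and 15 min.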
For orientation: In an ELISA, binding on a coated surface is turned into a signal by an enzyme label.

For `COc1cc(OC2C(C)(C)C(NC(=O)c3ccc(N4CCC(C)(N5CCC(n6nc(N7CCCc8cc(-c9cnn(C)c9)c(C(F)F)cc87)c7c6CCN(C(C)=O)C7)CC5)CC4)cc3)C2(C)C)ccc1C#N` (stereo not shown) [Compound 305, 4-[4-[4-[5-acetyl-3-[7-(difluoromethyl)-6-(1-methylpyrazol-4-yl)-3,4-dihydro-2H-quinolin-1-yl]-6,7-dihydro-4H-pyrazolo[4,3-c]pyridin-1-yl]-1-piperidyl]-4-methyl-1-piperidyl]-N-[3-(4-cyano-3-methoxy-phenoxy)-2,2,4,4-tetramethyl-cyclobutyl]benzamide], in the test on VCaP cells, the IC50 (usually the concentration that inhibits the measured activity by half) is ≤ 0.1 nM. In addition, in the test on AR / CBP ternary complex, the EC50 (usually the concentration giving half of the maximal effect) is < 1 nM.

For `COc1cc(OC2C(C)(C)C(NC(=O)c3ccc(N4CCC(CCc5ccc(-c6cc7c(cn6)N(c6nn(C8CCOCC8)c8c6CN(C(C)=O)CC8)CCC7)cn5)CC4)cc3)C2(C)C)ccc1C#N` (stereo not shown) [Compound 246, 4-[4-[2-[5-[1-(5-acetyl-1-tetrahydropyran-4-yl-6,7-dihydro-4H-pyrazolo[4,3-c]pyridin-3-yl)-3,4-dihydro-2H-1,7-naphthyridin-6-yl]-2-pyridyl]ethyl]-1-piperidyl]-N-[3-(4-cyano-3-methoxy-phenoxy)-2,2,4,4-tetramethyl-cyclobutyl]benzamide], in the test on VCaP cells, the IC50 lay in the range of 0.1 to 1 nM. Moreover, the EC50 with AR / CBP ternary complex is < 1 nM.

Regarding `COc1cc(OC2C(C)(C)C(NC(=O)c3ccc(N4CCC(C(=O)N5CCC(n6nc(N7CCCc8cc(-c9cnn(C)c9)c(C(F)F)cc87)c7c6CCN(C(C)=O)C7)CC5)CC4)cc3)C2(C)C)ccc1C#N` (stereo not shown) [Compound 252, 4-[4-[4-[5-acetyl-3-[7-(difluoromethyl)-6-(1-methylpyrazol-4-yl)-3,4-dihydro-2H-quinolin-1-yl]-6,7-dihydro-4H-pyrazolo[4,3-c]pyridin-1-yl]piperidine-1-carbonyl]-1-piperidyl]-N-[3-(4-cyano-3-methoxy-phenoxy)-2,2,4,4-tetramethyl-cyclobutyl]benzamide], in the test with VCaP cells, the concentration for half-maximal inhibition (IC50) is 0.1 to 1 nM. In addition, the EC50 with AR / CBP ternary complex is < 1 nM.

`CC(=O)N1CCc2c(c(N3CCCc4cc(-c5cnn(C)c5)c(C(F)F)cc43)nn2C2CC3(CCN(C4CCN(c5ncc(C(=O)NC6C(C)(C)C(Oc7ccc(C#N)c(Cl)c7)C6(C)C)cn5)CC4)CC3)C2)C1` (stereo not shown) [Compound 373, 2-[4-[2-[5-acetyl-3-[7-(difluoromethyl)-6-(1-methylpyrazol-4-yl)-3,4-dihydro-2H-quinolin-1-yl]-6,7-dihydro-4H-pyrazolo[4,3-c]pyridin-1-yl]-7-azaspiro[3.5]nonan-7-yl]-1-piperidyl]-N-[3-(3-chloro-4-cyano-phenoxy)-2,2,4,4-tetramethyl-cyclobutyl]pyrimidine-5-carboxamide]: the half-maximal inhibitory concentration (IC50) with VCaP cells is ≤ 0.1 nM. The 50% effective concentration (EC50) in the test with AR / CBP ternary complex was < 1 nM.

For the compound `CC(=O)N1CCc2c(c(Nc3ccc(-c4cnn(C)c4)cc3F)nn2C2CN(C3CCN(c4ncc(C(=O)NC5C(C)(C)C(Oc6ccc(C#N)c(Cl)c6)C5(C)C)cn4)CC3)C2)C1` (stereo not shown) [Compound 5, 2-[4-[3-[5-acetyl-3-[2-fluoro-4-(1-methylpyrazol-4-yl)anilino]-6,7-dihydro-4H-pyrazolo[4,3-c]pyridin-1-yl]azetidin-1-yl]-1-piperidyl]-N-[3-(3-chloro-4-cyano-phenoxy)-2,2,4,4-tetramethyl-cyclobutyl]pyrimidine-5-carboxamide], the half-inhibitory concentration (IC50) in the test on VCaP cells was > 100 nM. In the test on AR / CBP ternary complex, the EC50 was > 100 nM.

Take `CC(=O)N1CCc2c(c(N3CCCc4cc(-c5cnn(C)c5)c(C)cc43)nn2C2CCN(CC3CCN(c4ncc(C(=O)NC5C(C)(C)C(Oc6ccc(C#N)c(Cl)c6)C5(C)C)cn4)CC3)CC2)C1` (stereo not shown) [Compound 26, 2-[4-[[4-[5-acetyl-3-[7-methyl-6-(1-methylpyrazol-4-yl)-3,4-dihydro-2H-quinolin-1-yl]-6,7-dihydro-4H-pyrazolo[4,3-c]pyridin-1-yl]-1-piperidyl]methyl]-1-piperidyl]-N-[3-(3-chloro-4-cyano-phenoxy)-2,2,4,4-tetramethyl-cyclobutyl]pyrimidine-5-carboxamide]: the IC50 with VCaP cells was in the range of 0.1 to 1 nM. For the same compound, the EC50 in the test with AR / CBP ternary complex is < 1 nM.

`COc1cc(OC2C(C)(C)C(NC(=O)c3ccc(N4CCN(CCn5cc(-c6cc7cccc(-c8nn(C9CCOCC9)c9c8CN(C(C)=O)CC9)c7cn6)cn5)CC4)cc3)C2(C)C)ccc1C#N` (stereo not shown) [Compound 249, 4-[4-[2-[4-[8-(5-acetyl-1-tetrahydropyran-4-yl-6,7-dihydro-4H-pyrazolo[4,3-c]pyridin-3-yl)-3-isoquinolyl]pyrazol-1-yl]ethyl]piperazin-1-yl]-N-[3-(4-cyano-3-methoxy-phenoxy)-2,2,4,4-tetramethyl-cyclobutyl]benzamide] yielded an IC50 in the test with VCaP cells of 0.1 to 1 nM. In the test on AR / CBP ternary complex, the half-maximal effective concentration (EC50) was < 1 nM.

For `CC(=O)N1CCc2c(c(N3CCCc4cc(-c5cnn(C)c5)c(C(F)F)cc43)nn2C2CN(CC3CCN(c4ncc(C(=O)NC5C(C)(C)C(Oc6ccc(C#N)c(Cl)c6)C5(C)C)cn4)CC3)C2)C1` (stereo not shown) [Compound 10, 2-[4-[[3-[5-acetyl-3-[7-(difluoromethyl)-6-(1-methylpyrazol-4-yl)-3,4-dihydro-2H-quinolin-1-yl]-6,7-dihydro-4H-pyrazolo[4,3-c]pyridin-1-yl]azetidin-1-yl]methyl]-1-piperidyl]-N-[3-(3-chloro-4-cyano-phenoxy)-2,2,4,4-tetramethyl-cyclobutyl]pyrimidine-5-carboxamide], in the test with VCaP cells, the IC50 was 1 to 100 nM. For the same compound, the EC50 with AR / CBP ternary complex is > 100 nM.

On to `CC(=O)N1CCc2c(c(N3CCCc4cc(-c5cnn(C)c5)c(C(F)F)cc43)nn2CCN(C)c2ncc(C(=O)NC3C(C)(C)C(Oc4ccc(C#N)c(Cl)c4)C3(C)C)cn2)C1` (stereo not shown) [Compound 45, 2-[2-[5-acetyl-3-[7-(difluoromethyl)-6-(1-methylpyrazol-4-yl)-3,4-dihydro-2H-quinolin-1-yl]-6,7-dihydro-4H-pyrazolo[4,3-c]pyridin-1-yl]ethyl-methyl-amino]-N-[3-(3-chloro-4-cyano-phenoxy)-2,2,4,4-tetramethyl-cyclobutyl]pyrimidine-5-carboxamide], for which, in the test on VCaP cells, the concentration for half-maximal inhibition (IC50) is > 100 nM. In addition, in the test with AR / CBP ternary complex, the EC50 is > 100 nM.

For `CC(=O)N1CCc2c(c(N3CCCc4cc(-c5cnn(C)c5)c(C(F)F)cc43)nn2C2CCN(CCc3ncc(C(=O)NC4C(C)(C)C(Oc5ccc(C#N)c(Cl)c5)C4(C)C)cn3)CC2)C1` (stereo not shown) [Compound 92, 2-[2-[4-[5-acetyl-3-[7-(difluoromethyl)-6-(1-methylpyrazol-4-yl)-3,4-dihydro-2H-quinolin-1-yl]-6,7-dihydro-4H-pyrazolo[4,3-c]pyridin-1-yl]-1-piperidyl]ethyl]-N-[3-(3-chloro-4-cyano-phenoxy)-2,2,4,4-tetramethyl-cyclobutyl]pyrimidine-5-carboxamide], the 50% inhibitory concentration (IC50) in the test with VCaP cells is > 100 nM. The EC50 in the test on AR / CBP ternary complex was > 100 nM.

With `CC(=O)N1CCc2c(c(N3CCCc4ccc(C(F)F)cc43)nn2C2CCN(C(=O)C3CCN(c4ncc(C(=O)NC5C(C)(C)C(Oc6ccc(C#N)c(Cl)c6)C5(C)C)cn4)CC3)CC2)C1` (stereo not shown) [Compound 122, 2-[4-[4-[5-acetyl-3-[7-(difluoromethyl)-3,4-dihydro-2H-quinolin-1-yl]-6,7-dihydro-4H-pyrazolo[4,3-c]pyridin-1-yl]piperidine-1-carbonyl]-1-piperidyl]-N-[3-(3-chloro-4-cyano-phenoxy)-2,2,4,4-tetramethyl-cyclobutyl]pyrimidine-5-carboxamide], the IC50 with VCaP cells is ≤ 0.1 nM. Moreover, in the test on AR / CBP ternary complex, the EC50 was < 1 nM.
